Laboratory results: publication PMC2772130 (Chemical research in toxicology, 2008)
Read-outs that look alike come from different tables or passages of the source.

Experiments:
P450 1B1 [1] = biological target: T1, P450 1B1 (Homo sapiens, UniProt Q16678); assay: Inhibition of P450 1B1-dependent 7-ethoxyresorufin O-deethylation; details: for IC50: means and SE; for course of EROD Km values during the incubation: direct inhibitors
T1 sequence (Q16678 1-543): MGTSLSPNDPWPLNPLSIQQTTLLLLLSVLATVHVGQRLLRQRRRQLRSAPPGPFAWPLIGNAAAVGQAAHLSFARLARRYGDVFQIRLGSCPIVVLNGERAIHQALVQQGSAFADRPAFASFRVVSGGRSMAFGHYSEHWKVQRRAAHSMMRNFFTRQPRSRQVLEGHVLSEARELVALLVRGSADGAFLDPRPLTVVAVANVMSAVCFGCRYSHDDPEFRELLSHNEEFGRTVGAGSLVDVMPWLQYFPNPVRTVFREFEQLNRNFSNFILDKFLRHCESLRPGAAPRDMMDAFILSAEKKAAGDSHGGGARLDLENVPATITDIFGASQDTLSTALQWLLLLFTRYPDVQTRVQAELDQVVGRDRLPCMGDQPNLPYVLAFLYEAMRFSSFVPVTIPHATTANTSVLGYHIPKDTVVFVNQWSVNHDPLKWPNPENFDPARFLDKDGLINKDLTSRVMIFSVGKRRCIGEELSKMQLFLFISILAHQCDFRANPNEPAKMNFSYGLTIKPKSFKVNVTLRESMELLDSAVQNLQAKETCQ

P450 1B1 [2] = biological target: T1, P450 1B1; assay: Quenching of PAH; details: for interaction with P450 1B1 (quenching of inhibitor fluorescence): inhibitors at 10 nM
P450 1A2 [3] = biological target: T2, P450 1A2 (Homo sapiens, UniProt P05177); assay: Quenching of P450 fluorescence with inhibitors, P450 1A2; format: binding
T2 sequence (P05177 1-516): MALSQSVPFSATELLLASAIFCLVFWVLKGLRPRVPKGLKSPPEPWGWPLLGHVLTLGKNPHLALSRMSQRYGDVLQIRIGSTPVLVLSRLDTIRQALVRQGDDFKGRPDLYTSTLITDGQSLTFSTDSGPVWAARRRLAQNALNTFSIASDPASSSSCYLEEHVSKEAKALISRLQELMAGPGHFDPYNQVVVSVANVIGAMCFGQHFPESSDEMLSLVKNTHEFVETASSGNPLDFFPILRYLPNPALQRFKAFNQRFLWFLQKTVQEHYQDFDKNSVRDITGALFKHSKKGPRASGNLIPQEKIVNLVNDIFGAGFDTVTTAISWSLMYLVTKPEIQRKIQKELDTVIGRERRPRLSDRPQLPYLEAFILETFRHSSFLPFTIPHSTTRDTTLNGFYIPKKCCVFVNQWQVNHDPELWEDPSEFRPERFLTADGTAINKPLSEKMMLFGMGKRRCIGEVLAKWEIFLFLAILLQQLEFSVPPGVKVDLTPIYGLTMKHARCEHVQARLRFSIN

P450 1A1 [4] = biological target: T3, P450 1A1 (Homo sapiens, UniProt P04798); assay: Quenching of P450 fluorescence with inhibitors, P450 1A1; format: binding
T3 sequence (P04798 1-512): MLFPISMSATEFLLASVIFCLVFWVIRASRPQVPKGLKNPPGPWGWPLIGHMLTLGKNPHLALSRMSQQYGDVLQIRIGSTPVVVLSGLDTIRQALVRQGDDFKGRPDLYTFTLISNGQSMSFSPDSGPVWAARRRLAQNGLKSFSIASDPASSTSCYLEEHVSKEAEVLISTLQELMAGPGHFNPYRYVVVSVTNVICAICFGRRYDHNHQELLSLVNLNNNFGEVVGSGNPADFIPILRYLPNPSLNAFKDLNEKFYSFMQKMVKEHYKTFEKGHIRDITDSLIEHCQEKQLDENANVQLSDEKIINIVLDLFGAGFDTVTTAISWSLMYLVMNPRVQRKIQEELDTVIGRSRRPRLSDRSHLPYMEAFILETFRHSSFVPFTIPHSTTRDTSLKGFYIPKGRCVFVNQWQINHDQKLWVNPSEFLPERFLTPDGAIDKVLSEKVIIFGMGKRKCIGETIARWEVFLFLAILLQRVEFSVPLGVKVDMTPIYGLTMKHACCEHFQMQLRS

P450 1B1 [5] = biological target: T1, P450 1B1; assay: Quenching of P450 1B1; format: binding; details: extrapolated % quenching; 1.0 μM P450 1B1
P450 1B1 [6] = biological target: T1, P450 1B1
P450 1B1 [7] = biological target: T1, P450 1B1; assay: Spectral binding titrations with purified P450 1B1; details: for ΔAmax (ΔA~416-A~383) / wavelengths (peak/trough): 1 μM P450 1B1; for ΔAmax (ΔA~416-A~383): means ± S.E.; for wavelengths (peak/trough): pH 7.4
P450 1A2 [8] = biological target: T2, P450 1A2; assay: Inhibition of P450 1A2-dependent EROD activity; format: biochemical; details: 37 °C
P450 1A1 [9] = biological target: T3, P450 1A1; assay: Inhibition of P450 1A1-dependent EROD activity; format: biochemical; details: for fold increase in EROD Km of P450 1A1: 1PP 66 nM, 3PPh 333 nM
[10] = inhibition of EROD activity IC50, 15 s of incubation time (direct and direct/restore inhibitors)

Compound	IC50 (P450 1B1 [1]; [10])	PAH binding to P450 1B1 Bmax (P450 1B1 [5])	ΔAmax / Ks (P450 1B1 [6])	Kd (P450 1B1 [7])	ΔAmax (ΔA~416-A~383) (P450 1B1 [7])	wavelengths (peak/trough) (P450 1B1 [7])	also measured
c1ccc2c(c1)-c1cccc3c1c-2cc1ccccc13 [B[b]FA, benzo[b]fluoranthene]	5 ± 1 nM	91 ± 2%					interaction with P450 1B1 (quenching of inhibitor fluorescence) (P450 1B1 [2]): not found; Kd (P450 1A2 [3]): ~10000 nM; Kd (P450 1A1 [4]): ~10000 nM
C=Cc1ccc2ccc3cccc4ccc1c2c34 [1VP, 1-vinylpyrene]	88 ± 10 nM	65 ± 2%	0.021	4300 ± 500 nM	0.092 ± 0.006	416/383	Kd (P450 1B1 [2]): 1.9 to 18 nM; Kd (P450 1A2 [3]): ~10000 nM; Kd (P450 1A1 [4]): ~10000 nM
C#Cc1cc2cccc3ccc4cccc1c4c32 [4EP, 4-ethynylpyrene]	250 ± 20 nM	67 ± 3%	0.013	4000 ± 900 nM	0.052 ± 0.006	416/383	Kd (P450 1B1 [2]): 1.9 to 18 nM
C#Cc1ccc2ccc3ccccc3c2c1 [3EPh, 3-ethynylphenanthrene]	110 ± 16 nM	108 ± 22%	0.024	3000 ± 400 nM	0.071 ± 0.004	414/383	type of spectral change with P450 1B1 (P450 1B1 [7]; difference spectra): reverse type I
CC#Cc1ccc2c(ccc3ccccc32)c1 [2PPh, 2-(1-propynyl)phenanthrene]	100 ± 12 nM	77 ± 5%	0.030	2200 ± 100 nM	0.067 ± 0.001	415/383	Kd (P450 1B1 [2]): 1.9 to 18 nM
C#Cc1ccc2ccccc2c1 [2EN, 2-ethynylnaphthalene]	190000 ± 16000 nM			15000 ± 8000 nM	0.049 ± 0.038	415/383	course of EROD Km values during the incubation (P450 1B1 [1]): increased throughout the incubation period; ΔAmax / Ks (P450 1B1 [7]): 0.003
Cc1c2ccccc2c(C)c2c1ccc1ccccc12 [DMBA, 7,12-dimethylbenz[a]anthracene]	300 ± 33 nM	62 ± 1%					
C#Cc1cc2ccc3cccc4ccc(c1)c2c34 [2EP, 2-ethynylpyrene]	110 ± 20 nM	69 ± 3%	0.021	3400 ± 500 nM	0.071 ± 0.005	416/387	course of EROD Km values during the incubation (P450 1B1 [1]): increased throughout the incubation period; Kd (P450 1B1 [2]): 1.9 to 18 nM
C#Cc1cc2ccccc2c2ccccc12 [9EPh, 9-ethynylphenanthrene]	140 ± 18 nM	52 ± 3%	0.020	3600 ± 1000 nM	0.071 ± 0.010	415/383	course of EROD Km values during the incubation (P450 1B1 [1]): increased throughout the incubation period
CC#Cc1ccc2ccc3ccccc3c2c1 [3PPh, 3-(1-propynyl)phenanthrene]	40 ± 3 nM	73 ± 5%	0.019	3100 ± 400 nM	0.060 ± 0.004	415/383	EROD kcat of P450 1B1 relative to controls (P450 1B1 [1]; 1PP 66 nM, 3PPh 33 nM, after 6 min of incubation): 56%; fold increase in EROD Km of P450 1B1 (P450 1B1 [1]; 1PP 66 nM, 3PPh 33 nM, at 15 s): 2.3 fold; EROD Km of P450 1B1 relative to control value (P450 1B1 [1]; 3PPh 33 nM, 6 min of incubation): one-third; EROD kcat of P450 1B1 relative to control, first decrease (P450 1B1 [1]; initial stage of incubation): ~ one-fifth; mechanism of inhibition of P450 1A2 EROD activity (P450 1A2 [8]): mechanism-based manner; fold increase in EROD Km of P450 1A1 (P450 1A1 [9]; at 360 s): 25 fold; fold increase in EROD Km of P450 1A1 (P450 1A1 [9]; initial incubation time): ~ 8 fold; mechanism of inhibition of P450 1A1 EROD activity (P450 1A1 [9]; 37 °C, 30 min): mechanism-based inhibitors
Cc1cc2ccccc2c2ccc3ccccc3c12 [5MeCh, 5-methylchrysene]	8 ± 1 nM	83 ± 5%					interaction with P450 1B1 (quenching of inhibitor fluorescence) (P450 1B1 [2]): not found
C#Cc1ccc2c(ccc3ccccc32)c1 [2EPh, 2-ethynylphenanthrene]	130 ± 21 nM	62 ± 4%	0.020	4200 ± 1300 nM	0.080 ± 0.013	414/383	course of EROD Km values during the incubation (P450 1B1 [1]): increased throughout the incubation period; Kd (P450 1B1 [2]): 1.9 to 18 nM
CC#Cc1cc2ccccc2c2ccccc12 [9PPh, 9-(1-propynyl)phenanthrene]	110 ± 21 nM	61 ± 3%	0.015	3200 ± 300 nM	0.049 ± 0.002	416/383	course of EROD Km values during the incubation (P450 1B1 [1]): increased throughout the incubation period
c1ccc2c(c1)ccc1nc3ccc4ccccc4c3cc12 [DB[a,j]Ac, dibenz[a,j]acridine]	15 ± 2 nM						Kd (P450 1B1 [2]): 14 nM
c1ccc2c3c(ccc2c1)-c1cccc2cccc-3c12 [B[j]FA, benzo[j]fluoranthene]	44 ± 6 nM						
c1ccc2c(c1)-c1cccc3cccc-2c13 [FA, fluoranthene]	15 ± 1 nM	91 ± 2%					interaction with P450 1B1 (quenching of inhibitor fluorescence) (P450 1B1 [2]): not found; Kd (P450 1A2 [3]): ~10000 nM; Kd (P450 1A1 [4]): ~10000 nM
c1ccc2cc3c(ccc4ccccc43)cc2c1 [B[a]A, benz[a]anthracene]		46 ± 1%					IC50 (P450 1B1 [1]; read-out: inhibition of EROD activity IC50, 15 s of incubation time (direct and direct/restore inhibitors)): 9 ± 1 nM
c1ccc2c(c1)ccc1c3ccccc3ccc21 [chrysene]	92 ± 11 nM	84 ± 6%					interaction with P450 1B1 (quenching of inhibitor fluorescence) (P450 1B1 [2]): not found
c1ccc2c(c1)c1cccc3ccc4cccc2c4c31 [B[e]P, benzo[e]pyrene]	17 ± 2 nM	100 ± 6%					interaction with P450 1B1 (quenching of inhibitor fluorescence) (P450 1B1 [2]): not found
CC#Cc1ccc(-c2ccccc2)cc1 [4Pbi, 4-(1-propynyl)biphenyl]				12000 ± 5000 nM	0.074 ± 0.022	415/386	IC50 (P450 1B1 [1]; inhibition of EROD activity IC50, 6 min of incubation time (mechanism-based inhibitor)): 17000 ± 2000 nM; ΔAmax / Ks (P450 1B1 [7]): 0.005
C#Cc1ccc(-c2ccccc2)cc1 [4Ebi, 4-ethynylbiphenyl]	3300 ± 500 nM			7600 ± 1200 nM	0.023 ± 0.002	416/383	course of EROD Km values during the incubation (P450 1B1 [1]): increased throughout the incubation period; ΔAmax / Ks (P450 1B1 [7]): 0.003
Cc1ccc2cc3c(ccc4ccccc43)c3c2c1CC3 [3MC, 3-methylcholanthrene]	14 ± 2 nM	105 ± 6%					interaction with P450 1B1 (quenching of inhibitor fluorescence) (P450 1B1 [2]): not found
